Data: paper PMC10791743, “Selective CK1α degraders exert antiproliferative activity against a broad range of human cancer cell lines” (Nature Communications, 2024)
Where “and” joins values, the source holds several entries; their conditions need not be identical. Identical values can stand only once.

Experiments:
CRBN−/− MOLM-13 cells = assay: Wild type versus CRBN−/− MOLM-13 cells (viability, CRBN dependence); assay type: cell-based, human; design: key to cell viability, dose-response replicate values: % viability = 100 − % activity (RLU normalized to negative control); details: for cell viability, dose-response replicate values: MOLM-13 CRBN KO
Text: Having identified SJ7095 as a compound with a potent antiproliferative effect in MOLM-13 cells, we next examined whether the observed effect was CRBN-dependent. […] In an orthogonal approach, we tested SJ7095 in wild-type and CRBN-knockout MOLM-13 cells in a cell viability assay (Supplementary Fig. 1b).
CRBN^−/− MOLM-13 cells were created using CRISPR-Cas9 technology. Briefly, 1 million MOLM-13 cells were transiently transfected with precomplexed ribonuclear proteins (RNPs) consisting of 400 pmol of chemically modified sgRNA (Synthego), 135pmol of SpCas9 protein (St. Jude Protein Production Core), and 500 ng of pMaxGFP (Lonza) via nucleofection (Lonza, 4D-Nucleofector™ X-unit) using solution SF and program EO100 in a 100 µl cuvette according to the manufacturer’s recommended protocol. Transfected cells (GFP+) were single-cell sorted by flow cytometry (St. Jude Flow Cytometry and Cell Sorting Shared Resource) into 96-well tissue culture-treated plates 5 days post nucleofection. Cells were clonally expanded and screened for the desired targeted modification (out-of-frame indels) via targeted deep sequencing using gene-specific primers with partial Illumina adapter overhangs as previously described. Genotyping of clones was performed using CRIS.py[59]. Knockout clones were identified as clones containing only out-of-frame indels. PowerPlex® Fusion System (Promega) was used to confirm final clone identification (Hartwell Center for Biotechnology at St. Jude). All clones tested negative for mycoplasma by the MycoAlert^TMPlus Mycoplasma Detection Kit (Lonza). CRBN knockout confirmed by immunoblot (Supplementary Material).
MOLM-13 cells were plated in Corning 8804BC white 384-well assay plates at the appropriate cell number per well and incubated overnight at 37 °C in a humidified 5 % CO2 incubator. Compounds were transferred to the assay plate from a dose-response plate using a Labcyte Echo 650 Acoustic Liquid Handler (Beckman Coulter , USA). Cytotoxicity was determined following 72 h of incubation using Promega’s CellTiter-Glo reagent according to the manufacturer’s recommendation.
Luminescence was measured on the Envision plate reader (PerkinElmer, USA). Raw luminescence relative light unit (RLU) values for each compound at each concentration were normalized to obtain % activity using the following equation (1): 100 × [(mean(negctrl) – compound)/(mean (negctrl) – mean (posctrl))]. The % activity was converted to % viability using the following equation (2):
(100 – % activity), and then pooled from replicate experiments prior to fitting. Here, negctrl and posctrl refer to the negative (DMSO) and positive controls (staurosporine) on each plate. Dose-response curves were fit to the Hill equation using the GraphPad Prism (version 10). […]

CRBN = biological target: T1, CRBN (Homo sapiens, UniProt Q96SW2); assay: CRBN fluorescence polarization (FP) displacement assay; assay type: binding; design: key: % activity normalized to DMSO (0) and CC-220 (100) controls
T1 construct: 6XHis (N)
Description: The assay cocktail was prepared by combining 6XHis-CRBN-DDB1 protein (200 nM) and Cy5-O-Len probe (30 nM) in 20 mM HEPES pH 7, 150 mM NaCl, 0.005% Tween-20 assay buffer. […] Then 20 μL of the assay cocktail was dispensed to wells of the assay plate with a Multidrop Combi Reagent Dispenser (Thermo Fisher Scientific, USA). The plates were incubated in the dark for 1 h at room temperature and then read on an Envision plate reader (Perkin Elmer, USA). Raw intensity values for each compound at each concentration were normalized to obtain % activity using the following equation: 100×[(mean(negctrl)–compound)/(mean (negctrl)–mean (posctrl))], and then pooled from replicate experiments prior to fitting. Here, negctrl and posctrl refer to the negative (DMSO) and positive controls (CC-220) on each plate. Dose-response curves were fit to the Hill equation using the GraphPad Prism (version 10).

CK1α = CK1α (Homo sapiens, UniProt P48729+Q96SW2); assay: CK1α immunoblotting in MOLM-13 cells; assay type: cell-based; design: immunoblot analysis of CK1α in MOLM-13 cells following treatment with increasing concentrations of SJ7095 over 4 h; endogenous in cells; host or cells: MOLM-13 (DSMZ ACC 554); details: MOLM-13, 4 h
Description: Frozen pellets of ~1 million cells were lysed in 150 µl of SDS lysis buffer (60 mM Tris/HCl pH 7, 10% glycerol, 2% SDS, 5% beta-mercaptoethanol, 0.02% bromophenol blue, 0.5% protease and phosphatase inhibitor cocktail (Sigma Aldrich)). When cells were resuspended, samples were heated for 3 min at 99 °C then put on ice. Samples were then fragmented by sonication for 10 0.5-s pulses (550 Sonic Dismembrator, Fisher Scientific) and heated again at 99 °C for 2 min. 15 μl of each sample was added to the wells of a 4–20% polyacrylamide gel (Bio-Rad). A mixture of 2 μl of Precision Plus Protein Unstained Standards and 2 μl of Precision Plus Protein All Blue Standards (Bio-Rad) was used for the size marker. After electrophoresis, gels were transferred to nitrocellulose membrane using the Bio-Rad Trans-Blot Turbo system on the mixed molecular weight setting. Membranes were blocked for 1 h in Li-Cor Intercept Blocking Buffer then probed overnight at 4 °C with primary antibody, at 1:1000 dilution or 1:2000 dilution for actin, in Li-Cor Intercept Antibody Diluent. The following morning, membranes were washed three times for 5 min with TBS + 0.05% Tween-20, probed with fluorescent secondary antibodies (goat anti-rabbit IRDye 800CW and goat anti-mouse IRDye 680RD, Li-Cor) for 1 h at room temperature in the dark at 1:10,000 dilution, and washed again 3 times. Blots were imaged with the Li-Cor Odyssey CLx and analyzed using Image Studio Version 5.2.

T1 sequence (Q96SW2 whole entry): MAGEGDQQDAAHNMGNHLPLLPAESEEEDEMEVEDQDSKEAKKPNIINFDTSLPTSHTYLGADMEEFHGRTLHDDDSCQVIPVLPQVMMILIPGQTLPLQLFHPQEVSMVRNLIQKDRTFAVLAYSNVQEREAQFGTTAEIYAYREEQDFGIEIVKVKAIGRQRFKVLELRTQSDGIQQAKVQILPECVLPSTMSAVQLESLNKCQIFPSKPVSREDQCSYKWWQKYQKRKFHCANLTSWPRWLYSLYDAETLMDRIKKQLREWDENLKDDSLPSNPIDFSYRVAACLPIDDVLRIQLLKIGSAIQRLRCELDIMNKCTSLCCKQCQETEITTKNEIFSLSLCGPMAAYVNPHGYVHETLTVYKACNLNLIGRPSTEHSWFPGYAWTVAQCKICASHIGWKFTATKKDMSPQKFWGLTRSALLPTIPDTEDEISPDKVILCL
T1 sequence (Q16531 whole entry partner): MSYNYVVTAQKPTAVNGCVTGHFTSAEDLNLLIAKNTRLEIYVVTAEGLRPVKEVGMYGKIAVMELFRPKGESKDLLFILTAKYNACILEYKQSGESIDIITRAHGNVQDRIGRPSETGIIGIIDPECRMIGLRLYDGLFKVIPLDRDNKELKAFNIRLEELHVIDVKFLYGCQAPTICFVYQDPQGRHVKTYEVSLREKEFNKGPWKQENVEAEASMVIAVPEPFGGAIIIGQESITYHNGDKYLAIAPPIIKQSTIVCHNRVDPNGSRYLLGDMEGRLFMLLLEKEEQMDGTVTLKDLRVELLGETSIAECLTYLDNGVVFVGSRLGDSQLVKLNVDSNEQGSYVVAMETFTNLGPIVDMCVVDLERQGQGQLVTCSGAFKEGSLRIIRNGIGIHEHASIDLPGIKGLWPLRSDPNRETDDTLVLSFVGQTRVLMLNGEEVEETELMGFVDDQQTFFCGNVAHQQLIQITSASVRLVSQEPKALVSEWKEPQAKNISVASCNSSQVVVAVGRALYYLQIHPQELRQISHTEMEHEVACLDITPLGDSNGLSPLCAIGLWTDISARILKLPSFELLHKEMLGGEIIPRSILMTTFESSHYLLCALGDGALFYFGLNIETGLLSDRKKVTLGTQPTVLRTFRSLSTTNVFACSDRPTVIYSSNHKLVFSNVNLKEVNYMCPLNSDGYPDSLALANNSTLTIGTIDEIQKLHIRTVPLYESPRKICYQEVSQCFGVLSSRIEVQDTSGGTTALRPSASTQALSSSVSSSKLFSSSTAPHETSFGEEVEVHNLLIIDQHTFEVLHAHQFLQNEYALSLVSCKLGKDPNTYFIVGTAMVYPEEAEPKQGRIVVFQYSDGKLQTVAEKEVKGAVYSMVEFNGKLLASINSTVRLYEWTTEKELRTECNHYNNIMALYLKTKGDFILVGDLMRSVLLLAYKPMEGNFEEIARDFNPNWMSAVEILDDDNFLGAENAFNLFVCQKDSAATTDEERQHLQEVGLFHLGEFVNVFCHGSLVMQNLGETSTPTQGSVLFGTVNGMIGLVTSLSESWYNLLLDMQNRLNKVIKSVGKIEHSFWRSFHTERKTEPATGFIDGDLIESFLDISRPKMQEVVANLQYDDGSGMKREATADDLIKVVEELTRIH
Sequence of CK1α (P48729 whole entry, the tested form may be a part): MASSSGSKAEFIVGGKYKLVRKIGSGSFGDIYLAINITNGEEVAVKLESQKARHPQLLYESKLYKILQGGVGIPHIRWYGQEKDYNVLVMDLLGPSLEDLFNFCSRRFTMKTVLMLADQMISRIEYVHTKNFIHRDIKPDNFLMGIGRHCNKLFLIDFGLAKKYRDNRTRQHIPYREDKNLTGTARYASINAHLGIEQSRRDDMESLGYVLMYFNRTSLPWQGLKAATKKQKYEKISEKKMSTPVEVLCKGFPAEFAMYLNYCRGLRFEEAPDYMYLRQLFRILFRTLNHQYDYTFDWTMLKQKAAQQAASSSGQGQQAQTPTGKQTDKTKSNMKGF
Sequence of CK1α (Q96SW2 whole entry, the tested form may be a part): as the sequence (Q96SW2 whole entry) above
Sequence of CK1α (Q16531 whole entry partner, the tested form may be a part): as the sequence (Q16531 whole entry partner) above

CRBN binding FP, Activity (CRBN; SJ10040, [Compound] 2.71597 mM): 47.7349 and 37.554 and 42.475
CRBN binding FP, Activity (CRBN; SJ10040, [Compound] 8.14792 mM): 56.459 and 48.508 and 56.8103
CRBN binding FP, Activity (CRBN; SJ10040, [Compound] 24.44375 mM): 60.7319 and 59.4621 and 64.1617
CRBN binding FP, Activity (CRBN; SJ10040, [Compound] 73.33125 mM): 69.456 and 67.5893 and 79.2322
DC50 (CK1α; read-out: CK1α DC50 (immunoblot)): 11 nM
Dmax (CK1α; read-out: CK1α Dmax (immunoblot)): 88%
SMILES: Cc1cccc(C(=O)Nc2ccc3c(c2)CN(C2CCC(=O)NC2=O)C3=O)c1 (centres unmarked) [SJ0040]
viability at 0.00126002 µM (CRBN−/− MOLM-13 cells; Homo sapiens, MOLM-13, MOLM-13 CRBN KO, Conc 0.00126002 uM, read-out: cell viability, dose-response replicate values): 97.2%
viability at 0.0113402 µM (CRBN−/− MOLM-13 cells; Homo sapiens, MOLM-13, MOLM-13 CRBN KO, Conc 0.0113402 uM, read-out: cell viability, dose-response replicate values): 96.7%
viability at 0.0340206 µM (CRBN−/− MOLM-13 cells; Homo sapiens, MOLM-13, MOLM-13 CRBN KO, Conc 0.0340206 uM, read-out: cell viability, dose-response replicate values): 93.1%
viability at 0.102062 µM (CRBN−/− MOLM-13 cells; Homo sapiens, MOLM-13, MOLM-13 CRBN KO, Conc 0.102062 uM, read-out: cell viability, dose-response replicate values): 89.2%
viability at 0.306185 µM (CRBN−/− MOLM-13 cells; Homo sapiens, MOLM-13, MOLM-13 CRBN KO, Conc 0.306185 uM, read-out: cell viability, dose-response replicate values): 88.4%
viability at 0.918556 µM (CRBN−/− MOLM-13 cells; Homo sapiens, MOLM-13, MOLM-13 CRBN KO, Conc 0.918556 uM, read-out: cell viability, dose-response replicate values): 97.5%
viability at 2.75567 µM (CRBN−/− MOLM-13 cells; Homo sapiens, MOLM-13, MOLM-13 CRBN KO, Conc 2.75567 uM, read-out: cell viability, dose-response replicate values): 84.5%
viability at 8.267 µM (CRBN−/− MOLM-13 cells; Homo sapiens, MOLM-13, MOLM-13 CRBN KO, Conc 8.267 uM, read-out: cell viability, dose-response replicate values): 48.7%
cell viability, dose-response replicate values (CRBN−/− MOLM-13 cells; Conc 0.00126002 uM): 101.892 and 99.1853
cell viability, dose-response replicate values (CRBN−/− MOLM-13 cells; Conc 0.00378006 uM): 77.9399 and 92.8153 and 102.961
cell viability, dose-response replicate values (CRBN−/− MOLM-13 cells; Conc 0.0113402 uM): 90.8518 and 98.3247
cell viability, dose-response replicate values (CRBN−/− MOLM-13 cells; Conc 0.0340206 uM): 99.2582 and 100.85
cell viability, dose-response replicate values (CRBN−/− MOLM-13 cells; Conc 0.102062 uM): 95.1601 and 101.209
cell viability, dose-response replicate values (CRBN−/− MOLM-13 cells; Conc 0.306185 uM): 92.1664 and 101.967
cell viability, dose-response replicate values (CRBN−/− MOLM-13 cells; Conc 0.918556 uM): 93.1747 and 96.6395
cell viability, dose-response replicate values (CRBN−/− MOLM-13 cells; Conc 2.75567 uM): 84.7802 and 96.7661
cell viability, dose-response replicate values (CRBN−/− MOLM-13 cells; Conc 8.267 uM): 53.0309 and 66.5957
